Source: US12281122B1, “PI3K inhibitors” (Cogent Biosciences, Inc., priority 2023, dated 2025)

Assays:
[1] = system: T47D (PI3Kα-H1047R) cell line; test: HTRF phospho-AKT(S473) cell assay in T47D cells; format: cell-based, human
Procedure, shortened: (§1)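 T47D (PI3Kα-H1047R; RPMI, 10% FBS, insulin) and SKBR3 (wild-type PI3Kα; McCoy's 5A, 10% FBS) cells treated 2 h at 37 °C with 12-point 1:3 dilutions, top 5 μM and 10 μM respectively, ≤0.5% DMSO. SKBR3 stimulated with 70 ng/ml PDGF-BB for the last 15 min; lysate pAKT(S473) by HTRF, IC50 from curves.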

[2] = system: SKBR3 (PI3Kα-Wild Type) cell line; test: HTRF phospho-AKT(S473) cell assay in SKBR3 cells; format: cell-based, human
Procedure, shortened: as §1

[3] = Homo sapiens; T47D (PI3Kα-H1047R) cells, HTRF phospho-AKT(S473), 2 hours compound incubation
[4] = Homo sapiens, SK-BR-3; SKBR3 (PI3Kα-Wild Type) cells, HTRF phospho-AKT(S473), 2 hours compound incubation, PDGF-BB stimulated
[5] = Homo sapiens; HTRF phospho-AKT(S473), T47D (PI3Kα-H1047R) cells, 2 hours compound incubation
[6] = Homo sapiens, SK-BR-3; HTRF phospho-AKT(S473), SKBR3 (PI3Kα-Wild Type) cells, 2 hours compound incubation, PDGF-BB stimulated

SMILES | IC50 [1, 3] [nM] | IC50 [2, 4] [µM] | IC50 [1, 5] [nM] | IC50 [2, 6] [µM]
Cc1cc([C@@H](C)Nc2ccc(Cl)nc2C(=O)NS(C)(=O)=O)c2nc(-c3ccc(OC4CCN(CC(F)F)CC4)nc3)n(C)c(=O)c2c1 [Compound 815, (R)-6-chloro-3-((1-(2-(6-((1-(2,2-difluoroethyl)piperidin-4-yl)oxy)pyridin-3-yl)-3,6-dimethyl-4-oxo-3,4-dihydroquinazolin-8-yl)ethyl)amino)-N-(methylsulfonyl) picolinamide] |  |  | 250 to 500 | ≥ 5
Cc1cc([C@@H](C)Nc2ccc(Cl)nc2C(=O)NS(C)(=O)=O)c2nc(C3CCN(c4ccc(C#N)nc4)CC3)n(C)c(=O)c2c1 [Compound 180, (R)-6-chloro-3-((1-(2-(1-(6-cyanopyridin-3-yl)piperidin-4-yl)-3,6-dimethyl-4-oxo-3,4-dihydroquinazolin-8-yl)ethyl)amino)-N-(methylsulfonyl) picolinamide] | < 250 | 1 to 5 |  | 
Cc1cc([C@@H](C)Nc2ccc(Cl)nc2C(=O)NS(C)(=O)=O)c2nc([C@@H]3CCCN(c4ccccn4)C3)n(C)c(=O)c2c1 (relative stereo) [Compound 212, 6-chloro-3-(((R)-1-(3,6-dimethyl-4-oxo-2-((R*)-1-(pyridin-2-yl)piperidin-3-yl)-3,4-dihydroquinazolin-8-yl)ethyl)amino)-N-(methylsulfonyl) picolinamide] | < 250 | 1 to 5 |  | 
Cc1cc([C@@H](C)Nc2ccc(Cl)nc2C(=O)NS(C)(=O)=O)c2nc(N3Cc4cn(-c5ccc(C)nc5)nc4C3)n(C)c(=O)c2c1 [Compound 217, (R)-6-chloro-3-((1-(3,6-dimethyl-2-(2-(6-methylpyridin-3-yl)-2,6-dihydropyrrolo[3,4-c]pyrazol-5(4H)-yl)-4-oxo-3,4-dihydroquinazolin-8-yl)ethyl)amino)-N-(methylsulfonyl) picolinamide] | < 250 | 1 to 5 |  | 
Cc1cc([C@@H](C)Nc2ccc(Cl)nc2C(=O)NS(C)(=O)=O)c2nc(-c3ccc(C4(C#N)CC4)cc3)n(C)c(=O)c2c1 [Compound 773, (R)-6-chloro-3-((1-(2-(4-(1-cyanocyclopropyl)phenyl)-3,6-dimethyl-4-oxo-3,4-dihydroquinazolin-8-yl)ethyl)amino)-N-(methylsulfonyl) picolinamide] |  |  | < 250 | 1 to 5
Cc1cc([C@@H](C)Nc2ccc(Cl)nc2C(=O)NS(C)(=O)=O)c2nc(N3CCN(c4ncc(Cl)cn4)CC3)n(C)c(=O)c2c1 [Compound 530, (R)-6-chloro-3-((1-(2-(4-(5-chloropyrimidin-2-yl)piperazin-1-yl)-3,6-dimethyl-4-oxo-3,4-dihydroquinazolin-8-yl)ethyl)amino)-N-(methylsulfonyl) picolinamide] |  |  | 250 to 500 | ≥ 5
Cc1cc([C@@H](C)Nc2ccc(Cl)nc2C(=O)NS(C)(=O)=O)c2nc(N3Cc4cnn(C5(C(F)(F)F)CC5)c4C3)n(C)c(=O)c2c1 [Compound 179, (R)-6-chloro-3-((1-(3,6-dimethyl-4-oxo-2-(1-(1-(trifluoromethyl)cyclopropyl)-4,6-dihydropyrrolo[3,4-c]pyrazol-5(1H)-yl)-3,4-dihydroquinazolin-8-yl)ethyl)amino)-N-(methylsulfonyl) picolinamide] | < 250 | 1 to 5 |  | 
COc1nc(C)cc(N2CCN(c3nc4c([C@@H](C)Nc5ccc(Cl)nc5C(=O)NS(C)(=O)=O)cc(C)cc4c(=O)n3C)CC2)n1 [Compound 729, (R)-6-chloro-3-((1-(2-(4-(2-methoxy-6-methylpyrimidin-4-yl)piperazin-1-yl)-3,6-dimethyl-4-oxo-3,4-dihydroquinazolin-8-yl)ethyl)amino)-N-(methylsulfonyl) picolinamide] |  |  | 250 to 500 | 1 to 5
[2H]C([2H])([2H])n1ccc(C2CCN(c3nc4c([C@@H](C)Nc5ccc(Cl)nc5C(=O)NS(C)(=O)=O)cc(C)cc4c(=O)n3C)CC2)n1 [Compound 746, (R)-6-chloro-3-((1-(3,6-dimethyl-2-(4-(1-(methyl-d3)-1H-pyrazol-3-yl)piperidin-1-yl)-4-oxo-3,4-dihydroquinazolin-8-yl)ethyl)amino)-N-(methylsulfonyl) picolinamide] |  |  | < 250 | ≥ 5
Cc1cc([C@@H](C)Nc2ccc(Cl)nc2C(=O)NS(C)(=O)=O)c2nc(N3[C@@H]4CC[C@H]3C[C@H](n3cc(C)cn3)C4)n(C)c(=O)c2c1 [Compound 481, 6-chloro-3-(((R)-1-(3,6-dimethyl-2-((1R,3S,5S)-3-(4-methyl-1H-pyrazol-1-yl)-8-azabicyclo[3.2.1]octan-8-yl)-4-oxo-3,4-dihydroquinazolin-8-yl)ethyl)amino)-N-(methylsulfonyl) picolinamide] |  |  | 250 to 500 | 1 to 5
Cc1cc([C@@H](C)Nc2ccc(Cl)nc2C(=O)NS(C)(=O)=O)c2nc(N3CCN(c4ccnc(C(F)(F)F)n4)CC3)n(C)c(=O)c2c1 [Compound 589, (R)-6-chloro-3-((1-(3,6-dimethyl-4-oxo-2-(4-(2-(trifluoromethyl)pyrimidin-4-yl)piperazin-1-yl)-3,4-dihydroquinazolin-8-yl)ethyl)amino)-N-(methylsulfonyl) picolinamide] |  |  | 250 to 500 | ≥ 5
Cc1cc([C@@H](C)Nc2ccc(Cl)nc2C(=O)NS(C)(=O)=O)c2nc(N3CCC[C@H](c4ccncc4)C3)n(C)c(=O)c2c1 (relative stereo) [Compound 205, 6-chloro-3-(((R)-1-(3,6-dimethyl-4-oxo-2-((R*)-3-(pyridin-4-yl)piperidin-1-yl)-3,4-dihydroquinazolin-8-yl)ethyl)amino)-N-(methylsulfonyl) picolinamide] | < 250 | 1 to 5 |  | 

Further lines, results first:

IC50 [1, 3] [nM] | IC50 [2, 4] [µM] | IC50 [1, 5] [nM] | IC50 [2, 6] [µM] | SMILES
250 to 500 | 1 to 5 |  |  | Cc1cc([C@@H](C)Nc2ccc(Cl)nc2C(=O)NS(C)(=O)=O)c2nc(N3CCO[C@H](c4cnn(C)c4)C3)n(C)c(=O)c2c1 (relative stereo) [Compound 313, 6-chloro-3-(((R)-1-(3,6-dimethyl-2-((R*)-2-(1-methyl-1H-pyrazol-4-yl)morpholino)-4-oxo-3,4-dihydroquinazolin-8-yl)ethyl)amino)-N-(methylsulfonyl) picolinamide]
 |  | 250 to 500 | ≥ 5 | COc1cc(C2CCN(c3nc4c([C@@H](C)Nc5ccc(Cl)nc5C(=O)NS(C)(=O)=O)cc(C)cc4c(=O)n3C)CC2)nn1C [Compound 704, (R)-6-chloro-3-((1-(2-(4-(5-methoxy-1-methyl-1H-pyrazol-3-yl)piperidin-1-yl)-3,6-dimethyl-4-oxo-3,4-dihydroquinazolin-8-yl)ethyl)amino)-N-(methylsulfonyl) picolinamide]
< 250 | 1 to 5 |  |  | Cc1cc([C@@H](C)Nc2ccc(Cl)nc2C(=O)NS(C)(=O)=O)c2nc(N3C[C@H]4C[C@@H]3C[C@H]4c3ccn(C)n3)n(C)c(=O)c2c1 (relative stereo) [Compound 355, 6-chloro-3-(((R)-1-(3,6-dimethyl-2-((1R*,4S*,5R*)-5-(1-methyl-1H-pyrazol-3-yl)-2-azabicyclo[2.2.1]heptan-2-yl)-4-oxo-3,4-dihydroquinazolin-8-yl)ethyl)amino)-N-(methylsulfonyl) picolinamide]
 |  | < 250 | 1 to 5 | Cc1cc([C@@H](C)Nc2ccc(Cl)nc2C(=O)NS(C)(=O)=O)c2nc(N3C[C@@H]4[C@H](C3)[C@H]4c3cn(C(C)C)nn3)n(C)c(=O)c2c1 [Compound 528, 6-chloro-3-(((R)-1-(2-((1R,5S,6R)-6-(1-isopropyl-1H-1,2,3-triazol-4-yl)-3-azabicyclo[3.1.0]hexan-3-yl)-3,6-dimethyl-4-oxo-3,4-dihydroquinazolin-8-yl)ethyl)amino)-N-(methylsulfonyl) picolinamide]
 |  | 250 to 500 | ≥ 5 | Cc1cc([C@@H](C)Nc2ccc(Cl)nc2C(=O)NS(C)(=O)=O)c2nc(N3CC[C@H](Nc4ncc(F)cn4)C3)n(C)c(=O)c2c1 [Compound 737, 6-chloro-3-(((R)-1-(2-((S)-3-((5-fluoropyrimidin-2-yl)amino)pyrrolidin-1-yl)-3,6-dimethyl-4-oxo-3,4-dihydroquinazolin-8-yl)ethyl)amino)-N-(methylsulfonyl) picolinamide]
250 to 500 | 1 to 5 |  |  | COc1ccn(C2CCN(c3nc4c([C@@H](C)Nc5ccc(Cl)nc5C(=O)NS(C)(=O)=O)cc(C)cc4c(=O)n3C)CC2)n1 [Compound 317, (R)-6-chloro-3-((1-(2-(4-(3-methoxy-1H-pyrazol-1-yl)piperidin-1-yl)-3,6-dimethyl-4-oxo-3,4-dihydroquinazolin-8-yl)ethyl)amino)-N-(methylsulfonyl) picolinamide]
250 to 500 | ≥ 5 |  |  | Cc1cc([C@@H](C)Nc2ccc(Cl)nc2C(=O)NS(C)(=O)=O)c2nc(N3CCC[C@@H](Oc4cccnc4)C3)n(C)c(=O)c2c1 [Compound 343, 6-chloro-3-(((R)-1-(3,6-dimethyl-4-oxo-2-((R)-3-(pyridin-3-yloxy)piperidin-1-yl)-3,4-dihydroquinazolin-8-yl)ethyl)amino)-N-(methylsulfonyl) picolinamide]
 |  | < 250 | ≥ 5 | COc1ccc([C@H]2[C@@H]3CN(c4nc5c([C@@H](C)Nc6ccc(Cl)nc6C(=O)NS(C)(=O)=O)cc(C)cc5c(=O)n4C)C[C@@H]32)cn1 [Compound 610, 6-chloro-3-(((R)-1-(2-((1R,5S,6S)-6-(6-methoxypyridin-3-yl)-3-azabicyclo[3.1.0]hexan-3-yl)-3,6-dimethyl-4-oxo-3,4-dihydroquinazolin-8-yl)ethyl)amino)-N-(methylsulfonyl) picolinamide]
